89 molecules from a melting point compilation (Tetko et al.; mined from patent text by program, amines drawn as free bases though some values may be those of a salt) can be followed below.

SMILES strings stand for the structures.

What is called melting point is the temperature, or range, at which the solid turns liquid. Molecule `CC(=O)OCC(C)(C)C(OC(C)=O)C(Oc1ccc(Cl)cc1)n1cncn1` (centres undefined) registered a melting point of 84 to 87 °C.

As for `O=C1c2ccccc2C(=O)N1CCOc1cccc2c1SCCC2`, the melting point came out at 166 °C.

As to `O=c1oc(-c2ccccc2)cc(O)c1C(CC1CC1)SC1CCCC1` (centres undefined), the melting point was 75 to 80 °C. The same measure for `O=C(Nc1cccnc1)N1CCc2c1ccc(Cl)c2Cl`: over 240 °C; for `COc1cc2ncnc(NC3=CC(=O)C(N4CCOCC4)=CC3=O)c2cc1OC`: 249 to 250 °C. Molecule `CC(C)(C)c1ccc(C(=O)n2c3cc(O)c(O)cc3c3ccc(O)c(O)c32)cc1` displayed a melting point of 234 to 236 °C. `O=c1[nH]c(-c2ccc(C(F)(F)F)cc2C(F)(F)F)nn1-c1cc(Cl)ccc1O` showed a melting point of 270 to 275 °C.

The molecule `O=C(Nc1ccc(F)cc1)N1CC2C(C1)C2Nc1ncc2cc(-c3ccccc3Cl)c(=O)n(-c3ccc(F)cc3)c2n1` (centres undefined) gave a melting point of 300 to 302 °C. `CCOC(=O)c1cn(-c2nc(NC(C)C)c(F)cc2F)c2c(Cl)c(F)c(F)cc2c1=O` gave a melting point of 206 to 209 °C. The same measure for `COCCOC(=O)C1=C(C)Nc2nc(N3CCOCC3)nc(N3CCOCC3)c2C1c1cccc([N+](=O)[O-])c1` (centres undefined): 172 °C; for `CCc1ccc2c(Cc3nc4c(F)c(F)cc(F)c4s3)cn(CC(=O)O)c2n1`: 155 to 157 °C.

With `CCNc1cc2ccc(OC)c(OC)c2c2cc(C)ccc12`, the melting point lay in the range of 100 to 102 °C. Molecule `CN(C)CCC=Cc1ccc2c(c1)CCCN2C(=O)c1ccc(-c2ccc(Cl)cc2)cc1` had a melting point of 142 to 144 °C. Molecule `O=C(CBr)Nc1cc(F)c(F)cc1C(=O)O` registered a melting point of 177 to 180 °C. With `COc1c(O)cc2oc(-c3ccccc3)cc(=O)c2c1O`, the melting point fell in the range of 203 to 204 °C. In the case of `O=C(NC1CC1)c1c(NC(=O)c2cc(C(F)(F)F)nn2-c2ncccc2Cl)ccc2cc[nH]c12`, the melting point fell in the range of 239 to 241 °C. Molecule `FC(F)(F)Oc1ccc(Nc2cc(-c3ccccc3)ncn2)cc1` showed a melting point of 245 to 247 °C.

Molecule `O=C(O)COCCOCCN1CCC(=C(c2ccccc2)c2ccccc2)CC1` showed a melting point of 120 to 123 °C. The value for `Nc1nc2c(ncn2[C@H]2C=C[C@@H](O)CC2)c(=O)[nH]1` (racemic) was over 300 °C.

`CCOC(=O)c1nc(-c2cccc3ccccc23)no1`: the melting point is 68 to 70 °C. With `C=Cc1ccc2c(c1)CCN2C(=O)OC(C)(C)C`, the melting point was in the range of 85.5 to 88.6 °C. In turn, `O=C1CN(c2ccc(Cc3ccccc3)cc2)C(=S)N1Cc1ccccc1` had a melting point of 107 °C. The molecule `CC(=C1SC(=O)NC1=O)c1ccc(OCCOc2c(-c3ccc(F)cc3)n(C)c3cc(Cl)ccc3c2=O)cc1` returned a melting point of 292 to 296 °C.

In turn, `COC(=O)c1cc2nc(-c3ccccc3)nn2cc1F` came in with a melting point of 162 to 168 °C. The molecule `CCOC(=O)Cn1c(=O)c(=O)[nH]c2ccc3ccc([N+](=O)[O-])cc3c21` returned a melting point of over 250 °C. Consider `CCNC(=S)NS(=O)(=O)c1cc2c(cc1OC)OCCC2CNC(=O)c1cc(F)ccc1OC` (centres undefined), for which the melting point worked out at 207 °C. The value for `Cn1nnc2ccc3nc(O)c(O)nc3c21` was over 300 °C; that for `COc1ccc(CCC(=O)NNC(=O)c2ccc3ncsc3c2)cc1C(F)(F)F` was 208 to 209 °C; that for `CCCNC1CCC(O)CC1` (centres undefined) was 20 °C. Molecule `CC(C)(C)c1ccc(SCCCCCOc2ccc(C3=C(c4ccccc4)CCCc4cc(O)ccc43)cc2)cc1` returned a melting point of 139 °C. As for `COc1cccc2c1CC(N=[N+]=[N-])C(O)C2` (centres undefined), the melting point was 83 to 84 °C. Molecule `COc1nsc(OCCC#CI)c1C#N` came in with a melting point of 71 to 73 °C. Molecule `CN1CC(CN2CC(=O)NC2=O)C=C2c3cccc4[nH]cc(c34)CC21` (centres undefined) had a melting point of 282 to 284 °C. For `COc1ccc(C(=O)C=Cc2ccccc2O)c(OC)c1OC`, the melting point is 123 °C. With `CCN(CCF)CCN1C(=O)c2ccccc2C1=O`, the melting point fell in the range of 57 to 59 °C. `CC1(C)CC(=O)c2c(OC3CCC3)sc(-c3cc[nH]n3)c2C1` came in with a melting point of 202 to 204 °C. With `CC(C)CNc1cc(C(=O)O)cc(S(N)(=O)=O)c1Sc1ccc(N)cc1`, the melting point lay in the range of 250 to 252 °C. Molecule `CS(=O)(=O)c1ccc(-c2c(-c3ccccc3)[nH]c3ccccc23)cc1` yielded a melting point of 239 to 241 °C. Regarding `Cn1c(S(=O)(=O)CCO)nnc1S(=O)(=O)CCO`, the melting point fell in the range of 176 to 177 °C. `O=C(COc1ccc2ccccc2c1)Nc1ccc(C(=O)C(=O)O)cc1` had a melting point of 215 to 216 °C. The same measure for `Nc1nc2c(s1)CCN(CCC=Cc1ccccc1)CC2`: 157 to 158 °C; for `COc1ccc(CONC(=O)c2nc(-c3ccc(Cl)c(OC)c3F)cc(N)c2Cl)cc1`: 142 to 145 °C; for `CCCC(=NOCC)C1=C(O)CC(c2c(C)c(C)c(C)c3cc(C(C)=O)oc23)CC1=O` (centres undefined): 154 °C.

In the case of `O=C1OCc2cc(CO)ccc21`, the melting point came to 126 °C. For `CCCC(=O)Oc1ccc(C(O)CNC(C)(C)C)cc1OC(=O)CCC` (centres undefined), the melting point is 97 to 99 °C. The value for `Cc1cccc(OCC(O)CNCCOc2ccccc2)c1` (centres undefined) was 81 to 82 °C; that for `COc1nc(C(F)(F)F)cc(=O)n1-c1cc(O)c(Br)cc1F` was 132 to 136 °C. Take `N#CCCn1ccc(NC(=S)NCC(F)(F)F)n1`: the melting point is 164 to 165 °C. `O=C(O)CCc1ccc(CC(=O)OCc2ccccc2)cc1` registered a melting point of 62 to 64.5 °C.

Molecule `CC(C)c1cccc(C(C)C)c1NC(=O)CNC(c1ccccc1)c1ccc(N(C)C)cc1` (centres undefined) gave a melting point of 116 to 117 °C. Turning to `O=c1cc(N2CCOCC2)oc2ccc(-c3ccccc3)cc12`, the melting point lay in the range of 218 to 220 °C. Regarding `CCCCc1c(O)c2nccnc2n(-c2ccccc2)c1=O`, the melting point was in the range of 183 to 185 °C. In turn, `FC(F)(F)c1ccc(-c2cc(Oc3cccc4ccc(Cl)nc34)ncn2)cc1` gave a melting point of 172 to 173 °C. `N#Cc1c(N2CCCCC2)cc(-c2ccc3ccccc3c2)c2c1-c1ccccc1C2=O` returned a melting point of 166 to 167 °C.

With `COc1ccc2c(c1)-c1nn(CCCl)c3ccc([N+](=O)[O-])c(c13)N2`, the melting point fell in the range of 264 to 265 °C. The same measure for `CCCCOc1nc(N)c2ncn(C3CCCCC3)c2n1`: 138 to 141 °C. In turn, `COCc1csc2c(C(=O)O)c(=O)c3cc4c(cc3n12)OCO4` showed a melting point of 265 °C. The value for `c1ccc2c(c1)C(=NOCCN1CCOCC1)c1ccccc1C1CC21` (centres undefined) was 90 to 91 °C. On to `CC(=O)c1ccc2c(c1)CCCN2C(=O)OC(C)(C)C`, for which the melting point fell in the range of 80 to 82 °C. Turning to `CN(C)C(=S)Oc1ccc(C(=O)c2cccc(C#N)c2)cc1`, the melting point worked out at 160 °C. The value for `CC(C)c1ccc(S(=O)(=O)Nc2ccc(OC(F)(F)F)cc2I)cc1` was 72 °C. As to `Cc1cc(=O)c(C(=O)Oc2ccccc2)nn1-c1ccc(Cl)cc1`, the melting point is 140 to 146 °C.

`COc1ccc2c(c1)sc1nc(C)c(CO)n12` gave a melting point of 204 °C. On to `CC(C)(C)c1cc(Br)c(O)c(Br)c1`, for which the melting point fell in the range of 65 to 69 °C. `Nc1ccc2c(c1)C=C(C(=O)O)C(C(F)(F)F)O2` (centres undefined) registered a melting point of 126 to 133 °C. The same measure for `C/C(=C\c1ccc(C(=O)O)cc1)c1ccc2c(c1)C(C)(C)C(=O)CC2(C)C`: 260 to 261 °C; for `c1ccc2cc(OCCNC3CCCCC3)ccc2c1`: 89 °C; for `CN1C(=S)N(c2ccc(C#N)c(C(F)(F)F)c2)C(=S)C1(C)C`: 211 to 212 °C. Turning to `O=C(OCc1ccccc1)N1CCC2(CC1)CN(c1ccc(Cl)c(Cl)c1)C(=O)O2`, the melting point turned out to be 105 °C. The molecule `C=C(CC(=O)Nc1cc(Cl)cc(Cl)c1)C(=O)O` had a melting point of 185 °C.

For `COc1ccc2c(c1)c1c3c(c(-c4ccccc4Cl)cc1n2CCC#N)C(=O)NC3=O`, the melting point lay in the range of 287 to 288 °C. `COc1ccc(C=CCCl)cc1` had a melting point of 70 to 72 °C. The value for `CC[Si](CC)(CC)c1ccccc1S(=O)(=O)NC(=O)Nc1nc(OC)cc(OC)n1` was 136 °C; that for `Cc1nn(CC(F)(F)COCc2ccccc2)c(-c2ccc(F)cc2)c1-c1ccc2c(c1)NC(=O)CO2` was 154 to 155 °C.

`COc1cc(OC)c2c(=O)[nH]c(-c3ccc(O)c(CCO)c3)nc2c1`: the melting point fell in the range of 249 to 250 °C. `CCOC(=O)C1(C)OC(C)=C(O)C1=O` (centres undefined) yielded a melting point of 89.2 to 89.5 °C. The molecule `O=S(=O)(F)c1ccccc1S(=O)(=O)N1CCC1` had a melting point of 93 °C.

With `O=C1CCC(N2C(=O)c3cccc(NCC(=O)NC4CC4)c3C2=O)C(=O)N1` (centres undefined), the melting point lay in the range of 240 to 242 °C. `O=C1OC2(C=C1c1ccccc1)C=C(c1ccccc1)C(=O)O2` came in with a melting point of 235 to 237 °C. In the case of `N#CN=C(NCCO)NCCCSc1nccc(NC(N)=NCC(F)(F)F)n1`, the melting point was 114 to 116 °C. For the molecule `O=[N+]([O-])C(CN1CCOCC1)=C1NCCCS1`, the melting point fell in the range of 131 to 132 °C. Regarding `Cc1cc(C)n(-c2nc(Nc3ccc(N4CCOCC4)cc3)c3ccccc3n2)n1`, the melting point lay within 268 to 270 °C. The value for `N#Cc1[nH]c(-c2ccc(Cl)cc2Cl)nc1N` was 223 to 225 °C; that for `Cc1nc2c(OCc3c(Cl)ccc(N(C)C(=O)CNC(=O)CN4C(=O)c5ccccc5C4=O)c3Cl)cccn2c1Br` was 148 to 150 °C; that for `CC1=C(C(=O)OC(C)C)C(c2ccc(F)cc2Cl)N=C(c2c(F)cccc2F)N1` (centres undefined) was 155 to 158 °C.

`COC(=O)C(CO)N(Cc1ccccc1[N+](=O)[O-])S(=O)(=O)c1ccc(OC)cc1` (centres undefined) returned a melting point of 127 to 129 °C. The molecule `NS(=O)(=O)c1cncc(-c2cn(-c3cc(C(F)(F)F)cc(-c4ccc(C(F)(F)F)cc4)n3)cn2)c1` registered a melting point of over 250 °C. As for `CCOC(=O)Cn1ccn2nc(-c3ccccc3)cc12`, the melting point was in the range of 85 to 87 °C. The value for `COc1cc(C(=O)C(=O)c2ccccc2)c(OC)cc1C(=O)C(=O)c1ccccc1` was 209 to 211 °C.
